Target: Sodium-dependent serotonin transporter (Homo sapiens, UniProt P31645)
Experiment: SERT Inhibition Assay
Method: SERT inhibition was measured using a Neruotransmitter Transportation Fluorescence assay. […] Compounds were prepared by in assay buffer (20 mM HEPES, 0.1% BSA). The compounds were added to the plated cells and incubated for 30 minutes at 37° C. 25 μL of dye solution (Molecular Devices Neurotransmitter Transporter Uptake Assay Kit) was added per well and incubated for 30 minutes at 37° C. The plates were then read on a plate reader.

Sodium-dependent serotonin transporter, sequence (P31645 whole entry): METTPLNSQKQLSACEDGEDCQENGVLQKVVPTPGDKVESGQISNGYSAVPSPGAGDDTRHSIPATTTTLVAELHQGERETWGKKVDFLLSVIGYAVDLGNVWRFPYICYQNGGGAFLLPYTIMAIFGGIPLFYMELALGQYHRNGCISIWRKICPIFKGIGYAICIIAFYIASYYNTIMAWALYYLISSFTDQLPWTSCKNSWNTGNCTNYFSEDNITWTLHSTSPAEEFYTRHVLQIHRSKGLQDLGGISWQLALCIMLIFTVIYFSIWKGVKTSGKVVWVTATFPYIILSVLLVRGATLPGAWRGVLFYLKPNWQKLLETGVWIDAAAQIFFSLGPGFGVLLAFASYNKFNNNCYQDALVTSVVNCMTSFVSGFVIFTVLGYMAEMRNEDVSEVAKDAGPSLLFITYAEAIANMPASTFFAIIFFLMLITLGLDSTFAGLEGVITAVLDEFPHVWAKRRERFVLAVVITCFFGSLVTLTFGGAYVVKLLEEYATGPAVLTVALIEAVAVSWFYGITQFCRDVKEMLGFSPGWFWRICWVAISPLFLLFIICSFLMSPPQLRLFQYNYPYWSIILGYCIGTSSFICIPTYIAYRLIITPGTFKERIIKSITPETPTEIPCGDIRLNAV

Structure (SMILES) | IC50
COc1ccc([C@@]23CCN(C)[C@@H]2[C@@H]2CCC[C@H]3CC2=O)cc1OC [US20250059156, Compound 221] | < 0.05 µM
COc1ccc([C@]23CCN(C)[C@H]2[C@H]2CCC[C@@H]3CC2=O)cc1OC [US20250059156, Compound 220] | 0.1 to 0.5 µM

From BindingDB's records for patent US20250059156 (Sensorium Therapeutics, 2025)
